Laboratory results published in patent US11000033B2, “Ketone or oxime compound, and herbicide” (NISSAN CHEMICAL CORPORATION, priority 2014, dated 2021).

Legend:
Assay type in all cases: in vivo
Chenopodium album = experiment: Test Example 5: herbicidal effect by foliage application, plastic box (symbol O); settings: 320 g/ha, 3 weeks after application
Method in brief: (§1)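 Effect is rated 3 weeks after a foliar spray of water-diluted emulsion concentrate at a predetermined herbicide amount. Plants had grown 14 days in a 25° C. to 30° C. greenhouse from seed in sterilized diluvial soil.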

rice = experiment: Test Example 4: effect on crop by soil treatment (symbol b); settings: 320 g/ha
Method in brief: (§2)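 Seeds were sown in spots on sterilized diluvial soil in a plastic box and covered with about 1.5 cm of soil. Plants were then grown in a greenhouse at 25° C. to 30° C.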

Alopecurus myosuroides [1] = experiment: Test Example 5: herbicidal effect by foliage application, plastic box (symbol J); settings: 320 g/ha, 3 weeks after application
Method in brief: as §1

Veronica persica = experiment: Test Example 4: herbicidal effect by soil treatment (symbol R); settings: 320 g/ha
Method in brief: (§3)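 Seeds were sown in sterilized diluvial soil, covered with about 1.5 cm of soil, and the soil surface was sprayed with a water-diluted emulsion of the compound at a predetermined rate. Plants grew in a greenhouse at 25° C. to 30° C.; effects were scored visually 3 weeks after application.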

Avena fatua = experiment: Test Example 4: herbicidal effect by soil treatment (symbol I); settings: 320 g/ha
Method in brief: as §3

Leptochloa chinensis = experiment: Test Example 3: herbicidal effect by foliage application, Wagner pot (symbol D); settings: application herbicide amount 320 g/ha
Method in brief: (§4)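 Foliar spray of a water-diluted emulsion at a predetermined herbicide amount, applied to 14-day-old plants. Seedlings were raised in flooded alluvial soil (0.1–0.5 cm water) at 25–30 °C in a greenhouse. Injury was rated after 3 weeks against fixed criteria.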

Amaranthus retroflexus = experiment: Test Example 5: herbicidal effect by foliage application, plastic box (symbol N); settings: 320 g/ha, 3 weeks after application
Method in brief: as §1

Digitaria ciliaris = experiment: Test Example 4: herbicidal effect by soil treatment (symbol F); settings: 320 g/ha
Method in brief: as §3

Scirpus juncoides = experiment: Test Example 2: herbicidal activity, application during weed generation in submerged conditions (symbol B); settings: Table 23; application herbicide amount 320 g/ha; grade 0-5 by criteria of Test Example 1
Method in brief: (§5)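 Scoring of herbicidal effect took place 3 weeks after treatment, using the criteria of the earlier test. Treatment was water-surface application of diluted emulsifiable compound at a set dose. Plants were at one- to two-leaf stage in submerged alluvial soil (4 cm depth), greenhouse 25-30° C.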

Lolium multiflorum Lam. = experiment: Test Example 4: herbicidal effect by soil treatment (symbol K); settings: 320 g/ha
Method in brief: as §3

wheat = experiment: Test Example 4: effect on crop by soil treatment (symbol e); settings: 320 g/ha
Method in brief: as §2

[2] = system: Echinochloa oryzacola Vasing.; experiment: Test Example 2: herbicidal activity, application during weed generation in submerged conditions (symbol A); settings: Table 23; application herbicide amount 320 g/ha; grade 0-5 by criteria of Test Example 1
Method in brief: as §5

[3] = system: Echinochloa crus-galli var. crus-galli; experiment: Test Example 5: herbicidal effect by foliage application, plastic box (symbol H); settings: 320 g/ha, 3 weeks after application
Method in brief: as §1

Alopecurus myosuroides [4] = experiment: Test Example 4: herbicidal effect by soil treatment (symbol J); settings: 320 g/ha
Method in brief: as §3

[5] = system: Echinochloa crus-galli var. crus-galli; experiment: Test Example 3: herbicidal effect by foliage application, Wagner pot (symbol H); settings: application herbicide amount 320 g/ha
Method in brief: as §4

Stellaria media [6] = experiment: Test Example 4: herbicidal effect by soil treatment (symbol P); settings: 320 g/ha
Method in brief: as §3

rice plant = experiment: Test Example 5: effect on crop by foliage application, plastic box (symbol b); settings: 320 g/ha, 3 weeks after application
Method in brief: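 Greenhouse test at 25° C. to 30° C. Seeds of crops and weeds were spot-sown in boxes of sterilized diluvial soil under roughly 1.5 cm soil cover, then grown for foliage treatment.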

Monochoria vaginalis = experiment: Test Example 2: herbicidal activity, application during weed generation in submerged conditions (symbol C); settings: Table 23; application herbicide amount 320 g/ha; grade 0-5 by criteria of Test Example 1
Method in brief: as §5

Stellaria media [7] = experiment: Test Example 5: herbicidal effect by foliage application, plastic box (symbol P); settings: 320 g/ha, 3 weeks after application
Method in brief: as §1

Setaria viridis = experiment: Test Example 4: herbicidal effect by soil treatment (symbol G); settings: 320 g/ha
Method in brief: as §3

| SMILES | O: Chenopodium album, herbicidal effect (criteria 0-5) (Chenopodium album) | b: directly sowed rice plant, effect grade on crop (rice) | J: Alopecurus myosuroides, herbicidal effect (criteria 0-5) (Alopecurus myosuroides [1]) | R: Veronica persica, herbicidal effect grade (Veronica persica) | I: Avena fatua, herbicidal effect grade (Avena fatua) | herbicidal effect on D (Leptochloa chinensis), grade 0-5 (Leptochloa chinensis) | N: Amaranthus retroflexus, herbicidal effect (criteria 0-5) (Amaranthus retroflexus) | F: Digitaria ciliaris, herbicidal effect grade (Digitaria ciliaris) | Herbicidal effect grade, B: Scirpus juncoides (Scirpus juncoides) | K: Lolium multiflorum Lam., herbicidal effect grade (Lolium multiflorum Lam.) | e: wheat, effect grade on crop (wheat) | Herbicidal effect grade, A: Echinochloa oryzacola Vasing. [2] | H: Echinochloa crus-galli var. crus-galli, herbicidal effect (criteria 0-5) [3] | J: Alopecurus myosuroides, herbicidal effect grade (Alopecurus myosuroides [4]) | herbicidal effect on H (Echinochloa crus-galli var. crus-galli), grade 0-5 [5] | P: Stellaria media, herbicidal effect grade (Stellaria media [6]) | b: directly sowed rice plant, effect on crop (criteria 0-5) (rice plant) | Herbicidal effect grade, C: Monochoria vaginalis (Monochoria vaginalis) | P: Stellaria media, herbicidal effect (criteria 0-5) (Stellaria media [7]) | G: Setaria viridis, herbicidal effect grade (Setaria viridis) |
| --- | --- | --- | --- | --- | --- | --- | --- | --- | --- | --- | --- | --- | --- | --- | --- | --- | --- | --- | --- | --- |
| CCCCCCCCS(=O)(=O)OC1=C(c2c(C)cc(C)cc2C)C(=O)C(CC(C)=NOC)C1 (stereo not drawn) [1-107] | 0 (Herbicidal ratio of 5% or lower (almost no effect)) | 5 (Herbicidal ratio of 90% or more (almost completely withered)) | 5 (Herbicidal ratio of 90% or more (almost completely withered)) | 0 (Herbicidal ratio of 5% or lower (almost no effect)) | 0 (Herbicidal ratio of 5% or lower (almost no effect)) | 5 (Herbicidal ratio of 90% or more (almost completely withered)) | 0 (Herbicidal ratio of 5% or lower (almost no effect)) | 5 (Herbicidal ratio of 90% or more (almost completely withered)) | 2 (Herbicidal ratio of 20% or higher and lower than 40%) | 5 (Herbicidal ratio of 90% or more (almost completely withered)) | 0 (Herbicidal ratio of 5% or lower (almost no effect)) | 5 (Herbicidal ratio of 90% or more (almost completely withered)) | 5 (Herbicidal ratio of 90% or more (almost completely withered)) | 5 (Herbicidal ratio of 90% or more (almost completely withered)) | 5 (Herbicidal ratio of 90% or more (almost completely withered)) | 0 (Herbicidal ratio of 5% or lower (almost no effect)) | 5 (Herbicidal ratio of 90% or more (almost completely withered)) | 0 (Herbicidal ratio of 5% or lower (almost no effect)) | 0 (Herbicidal ratio of 5% or lower (almost no effect)) | 3 (Herbicidal ratio of 40% or higher and lower than 70%) |
| CON=C(C)CC1CC(OC(=O)N(C)C)=C(c2c(C)cc(C)cc2C)C1=O (stereo not drawn) [1-108] | 0 (Herbicidal ratio of 5% or lower (almost no effect)) | 5 (Herbicidal ratio of 90% or more (almost completely withered)) | 5 (Herbicidal ratio of 90% or more (almost completely withered)) | 0 (Herbicidal ratio of 5% or lower (almost no effect)) | 3 (Herbicidal ratio of 40% or higher and lower than 70%) | 5 (Herbicidal ratio of 90% or more (almost completely withered)) | 5 (Herbicidal ratio of 90% or more (almost completely withered)) | 5 (Herbicidal ratio of 90% or more (almost completely withered)) | 3 (Herbicidal ratio of 40% or higher and lower than 70%) | 5 (Herbicidal ratio of 90% or more (almost completely withered)) | 4 (Herbicidal ratio of 70% or higher and lower than 90%) | 5 (Herbicidal ratio of 90% or more (almost completely withered)) | 5 (Herbicidal ratio of 90% or more (almost completely withered)) | 5 (Herbicidal ratio of 90% or more (almost completely withered)) | 5 (Herbicidal ratio of 90% or more (almost completely withered)) | 0 (Herbicidal ratio of 5% or lower (almost no effect)) | 5 (Herbicidal ratio of 90% or more (almost completely withered)) | 1 (Herbicidal ratio of 5% or higher and lower than 20%) | 3 (Herbicidal ratio of 40% or higher and lower than 70%) | 5 (Herbicidal ratio of 90% or more (almost completely withered)) |
| CC(CC1CC(O)=C(c2c(C)cc(C)cc2C)C1=O)=NOCC1CC1(F)F (stereo not drawn) [1-109] | 3 (Herbicidal ratio of 40% or higher and lower than 70%) | 5 (Herbicidal ratio of 90% or more (almost completely withered)) | 5 (Herbicidal ratio of 90% or more (almost completely withered)) | 2 (Herbicidal ratio of 20% or higher and lower than 40%) | 2 (Herbicidal ratio of 20% or higher and lower than 40%) | 5 (Herbicidal ratio of 90% or more (almost completely withered)) | 0 (Herbicidal ratio of 5% or lower (almost no effect)) | 5 (Herbicidal ratio of 90% or more (almost completely withered)) | 5 (Herbicidal ratio of 90% or more (almost completely withered)) | 5 (Herbicidal ratio of 90% or more (almost completely withered)) | 2 (Herbicidal ratio of 20% or higher and lower than 40%) | 5 (Herbicidal ratio of 90% or more (almost completely withered)) | 5 (Herbicidal ratio of 90% or more (almost completely withered)) | 5 (Herbicidal ratio of 90% or more (almost completely withered)) | 5 (Herbicidal ratio of 90% or more (almost completely withered)) | 0 (Herbicidal ratio of 5% or lower (almost no effect)) | 5 (Herbicidal ratio of 90% or more (almost completely withered)) | 2 (Herbicidal ratio of 20% or higher and lower than 40%) | 3 (Herbicidal ratio of 40% or higher and lower than 70%) | 5 (Herbicidal ratio of 90% or more (almost completely withered)) |
